Legend:
rape leaf = assay: Penetration of a colored aqueous solution through the cuticle; details: 2.5% solution, 2 h on rape leaf then wiped
Procedure: Rape, a plant known for having a thick cuticle, was chosen in order to test the effectiveness of the invention as a penetrating agent.
A colorant in aqueous solution was deposited on a rape leaf, then left for 2 h and then wiped.

[1] = Formation of foam on preparing the mixture; format: physicochemical; details: 1% with 1% Cocamidopropyl betaine
Procedure: The two solutions were next stirred in equivalent manner, the photographs being taken before, immediately after stirring and 1 h after stirring.

soybeans = assay: Germination of soybeans after immersion treatment; format: in vivo; details: soybeans immersed 1 h in 0.75% solution
Procedure: The beans are next dried in a heating tunnel at 45° C. for one hour. Four batch repetitions of 15 beans are deposited on Petri dishes containing a medium composed of 2% Agar Agar and 98% water.
The Petri dishes are kept at ambient temperature and in darkness. Each day the number of germinated beans (having a radicle) is counted.

[2] = Drift limitation: size of drops after spraying; format: physicochemical; details: 2.5% with 5% titanium dioxide; 2, 4 and 8 bars
Excerpt: Increasing pressures (2, 4 and 8 bars) were used in order to test different conditions (FIG. 21: a, b and c respectively). The greater the pressure the more numerous and fine were the drops.

[3] = tested on: flat-leaf parsley variety NOVAS; assay: Root growth, assays in fields; format: in vivo, Petroselinum crispum var. neapolitanum; details: seeds immersed 1 h in 2.5% solution; 12 weeks after sowing
Procedure: In order to test the effect of the invention in conditions of crops in fields, the flat-leaf parsley variety NOVAS (Petroselinum crispum var. neapolitanum) is used.
The seeds are next dried in a heating tunnel at 45° C. for 1 h.
The seeds are mechanically sown (seeder) on strips of four rows each one beside the other to limit as much as possible the variations in soil quality, insulation and temperature. 12 weeks after sowing, 25 parsley plants were taken in order to measure several parameters of the roots: their weight, their length, and their diameter.

[4] = tested on: detached leaves of Buddleja davidii; assay: Persistence of the mixture at the foliar surface; details: 1% with 0.1% colorant; rinses with water
Procedure: The effect of the invention on the persistence of the mixture was evaluated after spraying a solution colored blue on detached leaves of Buddleja davidii.
After spraying, the leaves are left at ambient temperature until the sprayed solution has evaporated.
Next, several operations of rinsing the leaves with water are carried out. The rinse water is collected after each rinse and photographs are taken to observe and compare the coloration of the rinse waters. An absorbance measurement at 630 nm is also carried out by spectrophotometry.

Q: Which “penetration of the colorant through the cuticle” value (rape leaf) does the source give for sucrose stearate here?
A: Its value is “enables the colorant to color the leaf and thus to penetrate through the cuticle”.

Q: And the “reduction of the volume of foam immediately after stirring” value [1]?
A: The value was 30%.

Q: And the “increase of the germination kinetics on average” value (soybeans)?
A: Its value is 25%.

Q: What about the “germinated seeds, treated batch compared with the control batch” value (soybeans; after 1 day) of the same substance?
A: The value was 4 times.

Q: What about the “size of the drops after spraying” value [2] of the same substance?
A: The value was “enables an increase the size of the drops”.

Q: What about the “diameter of the taproot, on average greater than the control” value [3] of the same substance?
A: Its value is 30%.

Q: And the “roots with a length of more than 10 cm” value [3]?
A: Its value is 74%.

Q: What about the “weight of the taproot, on average greater than the control” value [3] of the same substance?
A: The value was 70%.

Q: What about the “persistence of the mixture on rinsing” value [4] of the same substance?
A: The value was “still present even after the 4th rinse”.

Source: patent publication US20200236933A1, “USE OF A NON-IONIC SURFACTANT WHICH IS A POLYOL DERIVATIVE AS A PLANT GROWTH STIMULATING AGENT OR AS AN ADJUVANT” (priority 2017, published 2020)
